Values joined by “and” are separate entries in the source; they are usually repeats but may differ in a detail not shown here. Identical values can stand only once.
Assays:
[1] = Partition equilibrium in the presence of surfactants (TBA, CTA, TMA); assay type: physicochemical; conditions: for Increase in migration to the aqueous phase with CTA: surfactant CTA, 1000 mg·L^−1
From the text: The presence of chemical compounds usually added in the chain of unit operations of oil extraction and production, such as demulsifiers and surfactants, can affect the partition equilibrium of species in this water/oil system. In order to understand the extent of this effect, as well as discern the relevance of the chemical structure on this effect, the following items were chosen: • Dissolvan 961 (Clariant), composed of oil hydrocarbons (CAS 918-811-1) and ethanol (CAS 64-17-5); • Dissolvan 974 (Clariant), composed of EO-PO block polymer poly adducts and Bisphenol-A-diglycidyl ether (CAS 68123-18-2) and ethanol (CAS 64-17-5); • Tetrabutylammonium chloride (CAS 1112-67-0), 97% purity; • Cetyltrimethylammonium chloride (CAS 112-02-7), 25% in water; and • Trimethylammonium chloride (CAS 593-81-7), 98% purity.
For this study, the experiments (in triplicate) used between 100.0 and 1000.0 mg·L^−1 of each compound, comparing the results with control tests (absence of the component), all with constant salinity at 3.5% (m·v^−1). Finally, neutralization titration with a standardized NaOH titrant solution was used to determine the effect on the partition equilibrium for four acidic species (the same as in the other examples, except for dicyclohexylacetic acid).
Considering the study with surfactants, the (individual) addition of three species to the control system was evaluated (tetrabutylammonium chloride (TBA), tetramethylammonium chloride (TMA) and cetyltrimethylammonium chloride (CTA)). For this purpose, the surfactants have distinct chemical structures, namely the size of the side chain, and their eventual effect on the partition equilibrium of the acidic species was evaluated.

[2] = Partition equilibrium under the influence of salinity (NaCl), glass reactor, neutralization titration; assay type: physicochemical; conditions: Salinity 0 (%, m · m^−1) NaCl
[3] = Partition equilibrium with addition of calcium and strontium salts to the aqueous phase; assay type: physicochemical
Procedure: The addition of salts to the reaction system is of fundamental importance when one intends to mimic field conditions. In this sense, in addition to continuing the study of the salinity effect (Example 4), the insertion of salts containing Ca^2+ and Sr^2+ ions, known to be present in seawater, was tested. To this end, the projects were based on the literature (Zheng, J. et al. Offshore produced water management: A review of current practice and challenges in harsh/Arctic environments. Mar. Pol. Bul. 2016, 104, 7-19) and four concentrations of each of the two ions were evaluated (400.0, 1200.0, 2600.0 and 9000.0 mg·L^−1), maintaining salinity at 3.5% (m·v^−1).
In short, the experimental results were generated in triplicate, using 99% NaCl to add salinity to the aqueous fraction and PA calcium chloride and PA strontium chloride to add calcium and strontium, respectively.
The addition of calcium and strontium to the reaction system, in the form of salts, aims at mimicking the real scenario in which both species are present (regardless of the salinity of the medium), especially in the well condition. This study aimed at understanding the effect (on the migration of acids to the organic phase) of this ion in the system also at concentrations higher than 10 mM. Finally, the experiments (in triplicate) with divalent strontium ions followed the same rationale.

[4] = Partition equilibrium under the influence of salinity (NaCl), glass reactor, neutralization titration; assay type: physicochemical
Procedure: The variation in salinity (and its effect on acidic species) is due to the large variation in salinity found between the portions of bottom-hole water, middle-well water and surface water. Thus, systems with salinity (i.e., NaCl) between 3.5 and 30% (m·v^−1) were tested in a glass reactor, and neutralization titration was performed (in triplicate analysis), as previously described. Furthermore, the experimental results were generated in triplicate, using 99% NaCl (Sigma-Aldrich) with five acidic species.

[5] = Partition equilibrium in the presence of demulsifiers (Dissolvan 961, Dissolvan 974)
[6] = Partition equilibrium in reactor pressurized with CO2, in presence and absence of alkalinity (NaHCO3, Na2CO3), back titration
Procedure: In the initial tests, 100 mL of heptol and 300 mL of water (with or without salinity) were used, with the addition of acidic species in the organic phase, in order to verify migration to the aqueous phase. As a rule, the system was kept under agitation at 500 rpm for 8 min, followed by rest for 10 min and, finally, collection of 50.0 mL aliquots of the aqueous phase for titrimetric analysis.
A 316 stainless steel alloy reactor (Parr®) (capacity for 600 mL and operational up to 20 MPa pressure) was used. For this purpose, a temperature range between 25° C. and 80° C. and pressure between 0.1 MPa and 1.0 MPa were used, and the reactor was pressurized with CO2. Thus, the results were compared (in terms of migration of the acidic species (%, mol) by means of back titrations) and the influence of pressure and temperature on the partition was estimated, as well as possible synergistic effects with the sources of alkalinity added to the aqueous phase.
Previously, the back titration procedure was internalized and optimized (Example 1), ensuring that the reproducibility of the measurements was adequate (standard deviation values below 10%, for example) and that the recoveries were close to what was expected based on the purity of the reagents (i.e., close to or above 90%). […] Control experiments were performed (measuring the availability of the species in an aqueous medium, without using the reactor) by solubilizing the organic acid directly in the aqueous phase and titrating a 10.0 mL aliquot; the same way, experiments were performed in the reactor based on the standardization of heptol and salinity already discussed (3.5%).

[7] = Absence of surfactant, salinity 3.5%
[8] = CTA100 (cetyltrimethylammonium chloride 100 mg · L^−1)
[9] = TBA100 (tetrabutylammonium chloride 100 mg · L^−1)
[10] = TMA100 (trimethylammonium chloride 100 mg · L^−1)
[11] = Calcium 400 mg · L^−1, salinity 3.5%
[12] = Calcium 1200 mg · L^−1, salinity 3.5%
[13] = Calcium 2600 mg · L^−1, salinity 3.5%
[14] = Strontium 400 mg · L^−1, salinity 3.5%
[15] = Strontium 1200 mg · L^−1, salinity 3.5%
[16] = Strontium 2600 mg · L^−1, salinity 3.5%
[17] = Salinity 3.5 (%, m · m^−1) NaCl
[18] = Salinity 18.0 (%, m · m^−1) NaCl
[19] = Salinity 30.0 (%, m · m^−1) NaCl
[20] = Absence of ions (no demulsifier), salinity 3.5%
[21] = 25° C. and 1.0 MPa CO2, no alkalinity
[22] = 80° C. and 1.0 MPa CO2, no alkalinity
[23] = Na2CO3 + NaHCO3, 25° C. and 0.1 MPa
[24] = Na2CO3 + NaHCO3, 25° C. and 1.0 MPa CO2
[25] = Na2CO3 + NaHCO3, 80° C. and 1.0 MPa CO2
[26] = Reference (heptol + 3.5% NaCl), no alkalinity

## O=C(O)c1ccccc1 [Benzoic Acid, benzoic acid]
[1]; [7]
  Migration: 82.0 %, mol
[1]; [8]
  Migration: 57.1 %, mol
[1]; CTA1000 (1000 mg · L^−1)
  Migration: 66.3 %, mol
[1]; [9]
  Migration: 55.5 %, mol
[1]; TBA1000 (1000 mg · L^−1)
  Migration: 54.8 %, mol
[1]; [10]
  Migration: 63.4 %, mol
[1]; TMA1000 (1000 mg · L^−1)
  Migration: 63.7 %, mol
[1]
  Increase in migration to the aqueous phase with CTA: ~10%
[1]; surfactant TBA, different concentrations
  Effect of TBA on migration to the aqueous phase: no significant effect
[1]; surfactant TMA, from 100 mg·L^−1
  Increase in affinity for the hydrophilic phase with TMA: approximately 10%
[2]
  Migration: 82.9 %, mol
[3]; Absence of ions, salinity 3.5%
  Migration: 82.0 %, mol
[3]; [11]
  Migration: 80.0 %, mol
[3]; [12]
  Migration: 56.7 %, mol
[3]; [13]
  Migration: 56.7 %, mol
[3]; [14]
  Migration: 83.0 %, mol
[3]; [15]
  Migration: 83.0 %, mol
[3]; [16]
  Migration: 83.0 %, mol
[3]; calcium ions, salinity 3.5%
  Extent of salting out effect in the presence of calcium: greater than 30%
[3]; strontium ions
  Migration to the aqueous phase in the presence of strontium: above 80 % (m·v^−1)
[4]; 30% (m·v^−1) NaCl versus tests without salinity
  Salting out effect (reduction in the number of moles contained in the aqueous phase): approximately 400%
[4]; [17]
  Migration: 83.0 %, mol
[4]; [18]
  Migration: 41.0 %, mol
[4]; [19]
  Migration: 22.5 %, mol
[4]; Salinity 30.0 (%, m · m^−1) NaCl, listed as benzoic acid
  Migration: 22.51 %, mol
[5]; [20]
  Migration: 82.0 %, mol
[5]; D961 50 mg · L^−1
  Migration: 62.3 %, mol
[5]; D961 100 mg · L^−1
  Migration: 70.3 %, mol
[5]; D961 1000 mg · L^−1
  Migration: 68.4 %, mol
[5]; D974 50 mg · L^−1
  Migration: 63.1 %, mol
[5]; D974 100 mg · L^−1
  Migration: 57.3 %, mol
[5]; D974 1000 mg · L^−1
  Migration: 59.7 %, mol
[6]; [21]
  Migration: 64.4 % mol
[6]; [22]
  Migration: 59.3 % mol
[6]; [23]
  Migration: 49.3 % mol
[6]; [24]
  Migration: 100 % mol
[6]; [25]
  Migration: 88.3 % mol
[6]; NaHCO3, 25° C. and 0.1 MPa
  Migration: 53.6 % mol
[6]; NaHCO3, 25° C. and 1.0 MPa CO2
  Migration: 93.3 % mol
[6]; NaHCO3, 80° C. and 1.0 MPa CO2
  Migration: 88.9 % mol and 88.6 % mol
[6]; [26]
  Migration: 82.0±3.0 % mol and 82 % mol

## O=C(O)CCCCC1CCCCC1 [Cyclohexanepentanoic Acid, cyclohexanepentanoic acid]
[1]; [7]
  Migration: 4.9 %, mol
[1]; [8]
  Migration: 2.1 %, mol
[1]; CTA1000 (1000 mg · L^−1)
  Migration: 38.9 %, mol
[1]; [9]
  Migration: 18.5 %, mol
[1]; TBA1000 (1000 mg · L^−1)
  Migration: 18.4 %, mol
[1]; [10]
  Migration: 0.0 %, mol
[1]; TMA1000 (1000 mg · L^−1)
  Migration: 0.0 %, mol
[1]
  Increase in migration to the aqueous phase with CTA: above 700%
[1]; surfactant TBA, noticeable from 100 mg·L^−1
  Increase in the tendency to migrate to the aqueous phase with TBA: 370%
[1]; surfactant TMA
  Effect of TMA on partition equilibrium: migration tending to zero
[2]
  Migration: 4.9 %, mol
[3]; Absence of ions, salinity 3.5%
  Migration: 4.9 %, mol
[3]; [11]
  Migration: 5.5 %, mol
[3]; [12]
  Migration: 4.7 %, mol
[3]; [13]
  Migration: 4.8 %, mol
[3]; [14]
  Migration: 4.4 %, mol
[3]; [15]
  Migration: 5.3 %, mol
[3]; [16]
  Migration: 4.8 %, mol
[3]; calcium up to the maximum study concentrations
  Effect of calcium ion on migration to the aqueous phase: no variation in migration
[3]; strontium 400-2600 mg·L^−1
  Effect of strontium ions on migration to the aqueous phase: no effect
[4]; 0-30% NaCl
  Migration to aqueous medium, approximate level over the salinity study: ~5%
[4]; 3.5-30% NaCl, 95% reliability
  Effect of the addition of salinity on migration: no significant effect
[4]; [17]
  Migration: 5.5 %, mol
[4]; [18]
  Migration: 5.5 %, mol
[4]; [19]
  Migration: 4.8 %, mol
[5]; [20]
  Migration: 4.9 %, mol
[5]; D961 50 mg · L^−1
  Migration: 5.42 %, mol
[5]; D961 100 mg · L^−1
  Migration: 5.16 %, mol
[5]; D961 1000 mg · L^−1
  Migration: 10.2 %, mol
[5]; D974 50 mg · L^−1
  Migration: 4.78 %, mol
[5]; D974 100 mg · L^−1
  Migration: 5.26 %, mol
[5]; D974 1000 mg · L^−1
  Migration: 12.80 %, mol
[5]; addition of 1000 mg·L^−1 demulsifier
  Increase in migration to the aqueous phase with demulsifier: ~100%
[6]; [21]
  Migration: not quantifiable
[6]; [22]
  Migration: not quantifiable
[6]; [23]
  Migration: 71.1 % mol
[6]; [24]
  Migration: 100.0 % mol
[6]; [25]
  Migration: 100.0 % mol
[6]; NaHCO3, 25° C. and 0.1 MPa
  Migration: 82.7 % mol
[6]; NaHCO3, 25° C. and 1.0 MPa CO2
  Migration: 100.0 % mol
[6]; NaHCO3, 80° C. and 1.0 MPa CO2
  Migration: 100.0 % mol
[6]; [26]
  Migration: 4.9 % mol and 4.3 % mol

Reference: patent publication US20250231157A1, “METHOD FOR DETERMINING THE PARTITION OF NAPHTHENIC ACIDS FROM A PRODUCTION WATER MIMICKING SYSTEM AND MIMICKING SYSTEM” (PETRÓLEO BRASILEIRO S.A. – PETROBRAS, priority 2023, published 2025)
